From the NIST ThermoML archive (doi:10.1016/j.fluid.2014.08.018)

Details: Liquid, Vibrating tube method

CC[n+]1ccccc1C.O=S(=O)([N-]S(=O)(=O)C(F)(F)F)C(F)(F)F
Details | mass density [kg/m3]
283.15 K, 100 kPa | 1520.3
283.15 K, 2500 kPa | 1522.2
283.15 K, 5000 kPa | 1523.8
283.15 K, 7500 kPa | 1525.4
283.15 K, 10000 kPa | 1527
283.15 K, 15000 kPa | 1530.1
283.15 K, 20000 kPa | 1533.1
283.15 K, 25000 kPa | 1536
283.15 K, 30000 kPa | 1538.8
283.15 K, 35000 kPa | 1541.6
283.15 K, 45000 kPa | 1546.9
283.15 K, 55000 kPa | 1551.8
283.15 K, 65000 kPa | 1556.4
288.15 K, 100 kPa | 1515.4
288.15 K, 2500 kPa | 1517.2
288.15 K, 5000 kPa | 1518.9
288.15 K, 7500 kPa | 1520.6
288.15 K, 10000 kPa | 1522.2
288.15 K, 15000 kPa | 1525.3
288.15 K, 20000 kPa | 1528.3
288.15 K, 25000 kPa | 1531.3
288.15 K, 30000 kPa | 1534.2
288.15 K, 35000 kPa | 1536.9
288.15 K, 45000 kPa | 1542.2
288.15 K, 55000 kPa | 1547.3
288.15 K, 65000 kPa | 1552
293.15 K, 100 kPa | 1510.5
293.15 K, 2500 kPa | 1512.4
293.15 K, 5000 kPa | 1514.1
293.15 K, 7500 kPa | 1515.7
293.15 K, 10000 kPa | 1517.4
293.15 K, 15000 kPa | 1520.6
293.15 K, 20000 kPa | 1523.6
293.15 K, 25000 kPa | 1526.6
293.15 K, 30000 kPa | 1529.5
293.15 K, 35000 kPa | 1532.4
293.15 K, 45000 kPa | 1537.8
293.15 K, 55000 kPa | 1542.9
293.15 K, 65000 kPa | 1547.7
298.15 K, 100 kPa | 1505.6
298.15 K, 2500 kPa | 1507.5
298.15 K, 5000 kPa | 1509.2
298.15 K, 7500 kPa | 1510.9
298.15 K, 10000 kPa | 1512.5
298.15 K, 15000 kPa | 1515.8
298.15 K, 20000 kPa | 1519
298.15 K, 25000 kPa | 1522
298.15 K, 30000 kPa | 1525
298.15 K, 35000 kPa | 1527.8
298.15 K, 45000 kPa | 1533.3
298.15 K, 55000 kPa | 1538.5
298.15 K, 65000 kPa | 1543.4
303.15 K, 100 kPa | 1500.8
303.15 K, 2500 kPa | 1502.7
303.15 K, 5000 kPa | 1504.5
303.15 K, 7500 kPa | 1506.2
303.15 K, 10000 kPa | 1507.9
303.15 K, 15000 kPa | 1511.2
303.15 K, 20000 kPa | 1514.3
303.15 K, 25000 kPa | 1517.5
303.15 K, 30000 kPa | 1520.5
303.15 K, 35000 kPa | 1523.4
303.15 K, 45000 kPa | 1528.9
303.15 K, 55000 kPa | 1534.2
303.15 K, 65000 kPa | 1539.2
308.15 K, 100 kPa | 1495.9
308.15 K, 2500 kPa | 1497.9
308.15 K, 5000 kPa | 1499.7
308.15 K, 7500 kPa | 1501.4
308.15 K, 10000 kPa | 1503.1
308.15 K, 15000 kPa | 1506.5
308.15 K, 20000 kPa | 1509.7
308.15 K, 25000 kPa | 1512.9
308.15 K, 30000 kPa | 1515.9
308.15 K, 35000 kPa | 1518.9
308.15 K, 45000 kPa | 1524.5
308.15 K, 55000 kPa | 1529.9
308.15 K, 65000 kPa | 1534.9
313.15 K, 100 kPa | 1491.1
313.15 K, 2500 kPa | 1493.2
313.15 K, 5000 kPa | 1495
313.15 K, 7500 kPa | 1496.8
313.15 K, 10000 kPa | 1498.5
313.15 K, 15000 kPa | 1502
313.15 K, 20000 kPa | 1505.2
313.15 K, 25000 kPa | 1508.4
313.15 K, 30000 kPa | 1511.5
313.15 K, 35000 kPa | 1514.5
313.15 K, 45000 kPa | 1520.3
313.15 K, 55000 kPa | 1525.7
313.15 K, 65000 kPa | 1530.8
318.15 K, 100 kPa | 1486.3
318.15 K, 2500 kPa | 1488.4
318.15 K, 5000 kPa | 1490.3
318.15 K, 7500 kPa | 1492.1
318.15 K, 10000 kPa | 1493.8
318.15 K, 15000 kPa | 1497.3
318.15 K, 20000 kPa | 1500.6
318.15 K, 25000 kPa | 1503.9
318.15 K, 30000 kPa | 1507
318.15 K, 35000 kPa | 1510.1
318.15 K, 45000 kPa | 1515.9
318.15 K, 55000 kPa | 1521.4
318.15 K, 65000 kPa | 1526.6
323.15 K, 100 kPa | 1481.5
323.15 K, 2500 kPa | 1483.7
323.15 K, 5000 kPa | 1485.6
323.15 K, 7500 kPa | 1487.4
323.15 K, 10000 kPa | 1489.2
323.15 K, 15000 kPa | 1492.7
323.15 K, 20000 kPa | 1496.2
323.15 K, 25000 kPa | 1499.5
323.15 K, 30000 kPa | 1502.6
323.15 K, 35000 kPa | 1505.7
323.15 K, 45000 kPa | 1511.7
323.15 K, 55000 kPa | 1517.3
323.15 K, 65000 kPa | 1522.5
328.15 K, 100 kPa | 1476.8
328.15 K, 2500 kPa | 1478.9
328.15 K, 5000 kPa | 1480.8
328.15 K, 7500 kPa | 1482.7
328.15 K, 10000 kPa | 1484.5
328.15 K, 15000 kPa | 1488.1
328.15 K, 20000 kPa | 1491.6
328.15 K, 25000 kPa | 1494.9
328.15 K, 30000 kPa | 1498.2
328.15 K, 35000 kPa | 1501.4
328.15 K, 45000 kPa | 1507.4
328.15 K, 55000 kPa | 1513
328.15 K, 65000 kPa | 1518.4
333.15 K, 100 kPa | 1472
333.15 K, 2500 kPa | 1474.3
333.15 K, 5000 kPa | 1476.2
333.15 K, 7500 kPa | 1478.1
333.15 K, 10000 kPa | 1480
333.15 K, 15000 kPa | 1483.6
333.15 K, 20000 kPa | 1487.2
333.15 K, 25000 kPa | 1490.5
333.15 K, 30000 kPa | 1493.9
333.15 K, 35000 kPa | 1497
333.15 K, 45000 kPa | 1503.2
333.15 K, 55000 kPa | 1509
333.15 K, 65000 kPa | 1514.3
